Assay results: paper PMC10509173, “Deep learning driven de novo drug design based on gastric proton pump structures” (Communications Biology, 2023)
Values joined by “and” are separate entries in the source; they are usually repeats but may differ in a detail not shown here. Equal values may be shown once.

Biological target: H+,K+-ATPase (Sus scrofa, UniProt P19156)
Test: Dose-dependent inhibition of H+,K+-ATPase activity, membrane fractions
Conditions: for H+,K+-ATPase activity, raw data of dose-dependent inhibition: single replicate values
[1] = [PCAB] -3.30103 (log, unit not given)
[2] = [PCAB] -3.52288 (log, unit not given)
[3] = [PCAB] -4 (log, unit not given)
[4] = [PCAB] -4.30103 (log, unit not given)
[5] = [PCAB] -4.52288 (log, unit not given)
[6] = [PCAB] -5 (log, unit not given)
[7] = [PCAB] -5.52288 (log, unit not given)
[8] = [PCAB] -6 (log, unit not given)
[9] = [PCAB] -6.30103 (log, unit not given)
[10] = [PCAB] -7 (log, unit not given)
[11] = [PCAB] -8 (log, unit not given)
[12] = [PCAB] -11 (log, unit not given; possibly placeholder for no compound)

H+,K+-ATPase, sequence (P19156 2-1034 limits assumed): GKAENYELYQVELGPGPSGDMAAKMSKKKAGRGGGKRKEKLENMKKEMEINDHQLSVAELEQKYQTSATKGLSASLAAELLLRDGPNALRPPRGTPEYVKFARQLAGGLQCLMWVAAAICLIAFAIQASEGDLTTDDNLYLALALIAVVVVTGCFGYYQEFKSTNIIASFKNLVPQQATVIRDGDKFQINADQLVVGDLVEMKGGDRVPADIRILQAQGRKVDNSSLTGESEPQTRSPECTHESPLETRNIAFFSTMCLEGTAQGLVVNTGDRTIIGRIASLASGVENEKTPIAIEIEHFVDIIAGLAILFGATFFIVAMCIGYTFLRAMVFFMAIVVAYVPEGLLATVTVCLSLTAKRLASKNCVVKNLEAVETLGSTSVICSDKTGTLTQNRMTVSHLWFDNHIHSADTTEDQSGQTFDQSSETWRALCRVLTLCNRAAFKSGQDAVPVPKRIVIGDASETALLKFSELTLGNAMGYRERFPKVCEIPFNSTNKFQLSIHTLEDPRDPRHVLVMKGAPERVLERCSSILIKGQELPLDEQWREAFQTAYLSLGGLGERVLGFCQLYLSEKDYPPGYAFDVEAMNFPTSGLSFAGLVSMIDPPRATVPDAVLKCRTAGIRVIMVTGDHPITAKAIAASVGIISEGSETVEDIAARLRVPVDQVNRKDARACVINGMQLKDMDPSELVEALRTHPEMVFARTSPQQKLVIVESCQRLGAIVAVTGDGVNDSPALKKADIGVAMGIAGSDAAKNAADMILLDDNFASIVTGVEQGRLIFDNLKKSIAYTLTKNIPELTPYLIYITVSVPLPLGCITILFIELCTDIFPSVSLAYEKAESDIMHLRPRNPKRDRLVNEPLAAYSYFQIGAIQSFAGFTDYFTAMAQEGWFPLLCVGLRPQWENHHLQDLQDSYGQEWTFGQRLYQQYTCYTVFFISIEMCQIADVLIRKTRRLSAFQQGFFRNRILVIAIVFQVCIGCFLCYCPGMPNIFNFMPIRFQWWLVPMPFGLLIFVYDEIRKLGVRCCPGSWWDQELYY
H+,K+-ATPase, sequence (P18434 whole entry partner): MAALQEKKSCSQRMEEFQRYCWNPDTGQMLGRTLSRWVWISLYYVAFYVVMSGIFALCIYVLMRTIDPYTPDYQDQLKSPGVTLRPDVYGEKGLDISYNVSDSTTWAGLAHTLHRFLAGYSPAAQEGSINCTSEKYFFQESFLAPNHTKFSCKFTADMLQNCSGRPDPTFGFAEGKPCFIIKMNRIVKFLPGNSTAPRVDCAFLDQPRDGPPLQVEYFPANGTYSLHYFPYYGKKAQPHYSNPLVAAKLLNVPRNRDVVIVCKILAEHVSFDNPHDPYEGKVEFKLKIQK

| IC50 | SMILES | H+,K+-ATPase activity, raw data of dose-dependent inhibition [1] | H+,K+-ATPase activity, raw data of dose-dependent inhibition [2] | H+,K+-ATPase activity, raw data of dose-dependent inhibition [3] | H+,K+-ATPase activity, raw data of dose-dependent inhibition [4] | H+,K+-ATPase activity, raw data of dose-dependent inhibition [5] | H+,K+-ATPase activity, raw data of dose-dependent inhibition [6] | H+,K+-ATPase activity, raw data of dose-dependent inhibition [7] | H+,K+-ATPase activity, raw data of dose-dependent inhibition [8] | H+,K+-ATPase activity, raw data of dose-dependent inhibition [9] | H+,K+-ATPase activity, raw data of dose-dependent inhibition [10] | H+,K+-ATPase activity, raw data of dose-dependent inhibition [11] | H+,K+-ATPase activity, raw data of dose-dependent inhibition [12] |
| --- | --- | --- | --- | --- | --- | --- | --- | --- | --- | --- | --- | --- | --- |
| 5.57 ± 0.45 µM | CN(C)Cc1ccc(OCc2ccccc2OCc2ccccc2)cc1 [DQ-11] | -9.05 and -9.17 and -0.38 and -0.55 and 0.75 and 0.18 | -7.01 and -7.07 and 0.86 and 1.01 and 0.22 and 0.76 | 0.73 and 0.95 and 7.54 and 7.57 and 6.64 and 7.22 | 5.75 and 5.69 and 7.96 (2×) and 7.99 and 7.73 | 10.92 and 10.91 and 16.8 and 13.24 and 16.06 and 16.58 | 34.05 and 32.3 and 39.91 and 37.9 and 37.76 and 40.04 | 63.88 and 61.74 and 70.3 and 67.49 and 63.1 and 68.35 | 89.53 and 87.88 and 83.74 and 79.92 and 83.72 and 84.81 | 90.62 and 87.46 and 94.24 and 93.36 and 93.48 and 92.73 | 95.63 and 90.8 and 99.34 and 102.28 and 88.88 and 100.71 | 97.6 and 94.94 and 102 and 102.29 and 100.82 and 103.84 | 102.26 and 95.06 and 98.26 and 100.19 and 96.56 and 106.72 |
| 1.54 ± 0.07 µM | NCc1ccc(OCc2ccccc2OCc2ccccc2)cc1 [DQ-12] | -2.13 and -5.12 and -1.35 and 1.97 and -1.31 and 0.69 | -0.8 and -0.12 and -1.95 (2×) and -1.32 and -0.19 | 0.73 and 0 and -0.35 and -0.11 and -0.2 and 0.01 | 3.34 and 3.14 and -0.81 and -0.94 and -0.85 and -0.15 | 5.83 and 5.43 and 5.22 and 6.02 and 6.1 and 5.29 | 14.6 and 14.36 and 13.48 and 12.93 and 13.73 and 12.81 | 35.47 and 34.66 and 35.13 and 34.7 and 33.05 and 34.53 | 63.22 and 63.5 and 59.87 and 57.62 and 57.1 and 58.43 | 74.96 and 75.04 and 76.55 and 75.62 and 74.4 and 76.41 | 91.01 and 87.51 and 98.57 and 99.1 and 95.69 and 97.51 | 96.05 and 93.52 and 100.03 and 97.19 and 98.53 and 98.62 | 97.64 and 96.4 and 100.03 and 99.55 and 98.47 and 102.15 |
| > 120 µM | CNCC#CCn1ccc2cccc(C#Cc3ccccc3)c21 [DQ-14] | 27.73 and 26.74 and 25.35 and 26.06 | 28.44 and 23.96 and 24.12 and 24.35 | 60.7 and 61.39 and 60.36 and 56.79 | 84.92 and 80.56 and 95.68 and 93.2 and 92.03 and 93.46 | 87.04 and 84.8 and 98.89 and 98.98 and 99.17 and 99.96 | 106.23 and 102.41 and 111.55 and 99.92 and 109.43 and 110.94 | 106.37 and 107.48 and 116.43 and 116.24 and 113.84 and 116.41 | 99.88 and 98.19 and 102.47 and 100.9 and 103.05 and 104.28 | 101.13 and 91.4 and 101.1 and 101.3 | 93.06 and 99.72 and 100.85 and 100.56 and 98.57 | 95.47 and 97.96 and 97.95 and 99.07 and 96.42 and 98.64 | 103.16 and 99.44 and 101.23 and 99.08 and 99.88 and 99.77 |
